Results on 11 compounds are retold here after ChEMBL document CHEMBL1201862, “PubChem BioAssay data set” (2004).

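All cell lines were grown in 96-well plates and treated with compound for 48 hours. At the GI50, growth is halved.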 The source made the active and inactive calls. No stated cut-off is given here; in the data, active = GI50 up to about 1.1 µM and inactive = higher.

What all share (assay): inhibition of tumour cell growth, NCI panel, 48 h
The test system of test [1] is MDA-MB-435.
Test [2] deals with SF-295.
Test [3] has as its system UACC-62.
The test system of test [4] is SK-OV-3.
The subject of test [5] is DU-145.
Test [6] has as its system CCRF-CEM.
The test system of test [7] is PC-3.
In test [8] the test system is SNB-19.
For test [9], the system named is OVCAR-8.
Test [10] has as its system SN12C.
Test [11] relates to NCI-H460.
The subject of test [12] is U-251.
Test [13] has as its system SF-539.
Test [14] concerns RXF 393.
The test system of test [15] is MDA-N.
Test [16] relates to OVCAR-4.
Test [17] relates to NCI-H23.
Test [18] relates to MCF7.
For test [19], the system named is HCT-116.
Test [20] deals with Malme-3M.

As to `O=C(/C=C/c1ccc(OCc2cccc(Cl)c2)cc1)NO`, the GI50 in test [1] is 18.5 µM (inactive); in test [2], 17.9 µM (inactive); in [3], 13.1 µM (inactive); in test [4], 17.9 µM (inactive); in test [5] it was 15.3 µM (inactive); in test [6] it was 2.65 µM (inactive). The GI50 in test [7] is 12.6 µM (inactive); in test [8] it was 18 µM (inactive); in test [9], 6.31 µM (inactive); in test [10], 20.6 µM (inactive); in test [11], 15.9 µM (inactive); in test [12], 15 µM (inactive). Besides, the GI50 was 17.2 µM (inactive) in [13]; 15.5 µM (inactive) in [14]; 18.6 µM (inactive) in test [15]; 13.5 µM (inactive) in test [16]; 11.2 µM (inactive) in test [17]; 39.5 µM (inactive) in [18]. The GI50 in [19] is 11.5 µM (inactive).
Turning to `Cc1ccc([C@@H]2[C@@H](C(=O)c3ccccn3)[C@H](c3ccc(C)cc3)C[C@](O)(c3ccccn3)[C@H]2C(=O)c2ccccn2)cc1`, the GI50 in test [1] was 8.22 µM (inactive); in [2], 4.21 µM (inactive); in test [3], 3.16 µM (inactive); in test [5], 2.17 µM (inactive); in test [6], 0.851 µM (active); in test [7], 6.56 µM (inactive). Moreover, the GI50 in test [20] was 8.79 µM (inactive); in test [8], 3.04 µM (inactive); in test [9] it was 3.33 µM (inactive); in [10], 3.18 µM (inactive); in test [11], 2.27 µM (inactive); in test [12], 2.77 µM (inactive). For the same compound, the GI50 in test [13] is 2.08 µM (inactive); in test [14] it was 3.15 µM (inactive); in test [15] it was 3.69 µM (inactive); in test [16] it was 4.98 µM (inactive); in test [17], 18.8 µM (inactive); in test [18] it was 4.86 µM (inactive). The GI50 in test [19] is 2.89 µM (inactive).
Regarding `Cc1ccc([N+](=O)[O-])cc1S(=O)(=O)Nc1ccc(C2=NN(S(=O)(=O)c3cc([N+](=O)[O-])ccc3C)C(c3cccs3)C2)cc1` (centres undefined), the GI50 is 50 µM (inactive) in [1]; 21.2 µM (inactive) in test [2]; 15.8 µM (inactive) in [3]; 24.5 µM (inactive) in [4]; 51.3 µM (inactive) in test [5]; 30 µM (inactive) in test [7]. In addition, the GI50 in test [20] is 47.9 µM (inactive); in test [8] it was 45.2 µM (inactive); in [9] it was 50.2 µM (inactive); in test [10], 33.7 µM (inactive); in [11], 28.2 µM (inactive); in [12], 30.1 µM (inactive). Also, the GI50 was 56.5 µM (inactive) in test [14]; 33.7 µM (inactive) in test [15]; 37.4 µM (inactive) in [16]; 21.8 µM (inactive) in test [17]; 10.7 µM (inactive) in [18]; 26.5 µM (inactive) in [19].
Take `Cc1csc(NCc2ccc(Cl)cc2)n1`: the GI50 was 52.2 µM (inactive) in test [1]; 39.8 µM (inactive) in test [2]; > 100 µM (inactive) in test [4]; > 100 µM (inactive) in test [5]; 39.1 µM (inactive) in [6]; 37.8 µM (inactive) in test [7]. Besides, the GI50 is 45.1 µM (inactive) in test [20]; 75.2 µM (inactive) in test [8]; 56.2 µM (inactive) in test [9]; 81.5 µM (inactive) in [10]; 41.3 µM (inactive) in test [12]; > 100 µM (inactive) in [13]. The GI50 is 25.4 µM (inactive) in test [14]; 57.7 µM (inactive) in test [15]; 37 µM (inactive) in [16]; 32.3 µM (inactive) in test [17]; 43.3 µM (inactive) in test [18]; 38.6 µM (inactive) in test [19].
For `O=C1Nc2ccccc2/C1=C\c1c(Cl)[nH]c2ccccc12`, the GI50 was 0.208 µM (active) in test [1]; 0.287 µM (active) in [2]; 1.05 µM (active) in test [3]; 0.32 µM (active) in test [4]; 3.35 µM (inactive) in [5]; 0.358 µM (active) in test [6]. The GI50 in test [7] was 0.649 µM (active); in [20], 0.631 µM (active); in test [8], 0.764 µM (active); in test [9], 2.42 µM (inactive); in [10], 2.85 µM (inactive); in test [11] it was 0.597 µM (active). Besides, the GI50 is 0.518 µM (active) in test [12]; 0.374 µM (active) in test [13]; 0.869 µM (active) in test [14]; 0.24 µM (active) in test [15]; 2.45 µM (inactive) in test [17]; 0.366 µM (active) in test [18]. In addition, the GI50 in test [19] is 0.745 µM (active).
On to `C=CCCC(=O)C(=[N+]=[N-])C(=O)CCC(=O)c1ccccc1`, for which the GI50 in [1], in test [2], in [3], in test [4], in test [5] and in test [7] was > 10 µM (inactive) in each case. Also, the GI50 in test [20], in test [8], in test [9], in test [10], in [11] and in test [12] was > 10 µM (inactive) each time. Further, the GI50 in test [13], in test [14], in test [15], in test [17] and in test [18] was > 10 µM (inactive) throughout.
In the case of `CCNC(=O)c1c(O)nc2ccccc2c1O`, the GI50 was 59.7 µM (inactive) in [1]; 80.9 µM (inactive) in [2]; 80.9 µM (inactive) in [5]; 52.2 µM (inactive) in test [6]; 49.9 µM (inactive) in test [7]; > 100 µM (inactive) in test [20]. Besides, the GI50 in [8] is 83.9 µM (inactive); in test [9], > 100 µM (inactive); in test [10], 67.6 µM (inactive); in [11], 34.9 µM (inactive); in test [12], 29.5 µM (inactive); in test [13] it was > 100 µM (inactive). Further, the GI50 in test [14] was 22.1 µM (inactive); in [15], 84.9 µM (inactive); in test [16] it was 70.6 µM (inactive); in test [17], > 100 µM (inactive); in [18], 51.8 µM (inactive); in [19] it was 51.1 µM (inactive).
On to `CCC(Nc1ncnc2nc[nH]c12)C(=O)O` (centres undefined), for which the GI50 in test [1], in [2], in [3], in [4], in [5] and in test [6] was > 100 µM (inactive) throughout. Moreover, the GI50 in test [7], in test [20], in test [8], in [9], in [10] and in [11] was > 100 µM (inactive) each time. Also, the GI50 in test [12], in test [14], in test [15], in test [16], in test [17] and in test [18] was > 100 µM (inactive) in each case. In addition, the GI50 in [19] was > 100 µM (inactive).
`COc1ccc(C2C(C#N)=C(S)N(C3OC(CO)C(O)C(O)C3O)C(c3ccccc3)=C2C(C)=O)cc1` (centres undefined): the GI50 in test [1] was 32.6 µM (inactive); in test [2], > 100 µM (inactive); in test [3], 58.6 µM (inactive); in test [5], > 100 µM (inactive); in test [6] it was 63.1 µM (inactive); in [7], 48.2 µM (inactive). The GI50 in test [20] is 70.6 µM (inactive); in [8], 89.3 µM (inactive); in [9], 63.7 µM (inactive); in test [10], > 100 µM (inactive); in test [11], 88.1 µM (inactive); in [12], 53.2 µM (inactive). The GI50 in test [13] is 78.2 µM (inactive); in test [14] it was > 100 µM (inactive); in test [15] it was 37.2 µM (inactive); in [16] it was > 10 µM (inactive); in test [17] it was > 100 µM (inactive); in test [18], 72.1 µM (inactive). The GI50 in [19] was 70.6 µM (inactive).
On to `COC(=O)[C@H](Cc1ccccc1)NC(=O)N1CCCN(C(=O)N[C@@H](Cc2ccccc2)C(=O)OC)CCCN(C(=O)N[C@@H](Cc2ccccc2)C(=O)OC)CCC1`, for which the GI50 was 20.6 µM (inactive) in test [1]; 17.8 µM (inactive) in [2]; 16.2 µM (inactive) in test [3]; 22.8 µM (inactive) in test [4]; 18.4 µM (inactive) in test [5]; 32.5 µM (inactive) in [6]. In addition, the GI50 in test [7] was 15.8 µM (inactive); in test [20], 17.2 µM (inactive); in test [8], 27.7 µM (inactive); in test [9], 20.7 µM (inactive); in [10] it was 19.6 µM (inactive); in test [11], 27.7 µM (inactive). Besides, the GI50 was 16.7 µM (inactive) in [12]; 16.9 µM (inactive) in test [14]; 26.1 µM (inactive) in [15]; 20.7 µM (inactive) in test [16]; 27.2 µM (inactive) in test [17]; 18.2 µM (inactive) in test [18]. Also, the GI50 in test [19] is 20.2 µM (inactive).
On to `C#CCOC(=O)c1ccccc1OC(C)=O`, for which the GI50 in test [1], in [2], in test [3], in test [4], in test [5] and in test [6] was > 100 µM (inactive) each time. The GI50 in [7], in test [8], in test [9], in [10], in test [11] and in [12] was > 100 µM (inactive) throughout. For the same compound, the GI50 in test [13], in test [14], in test [15], in test [16], in test [17] and in test [18] was > 100 µM (inactive) each time. Moreover, the GI50 in test [19] is > 100 µM (inactive).
